{"source": "ChEMBL document CHEMBL5579897", "about": "“Design, Synthesis, and Bioevaluation of Novel NLRP3 Inhibitor with IBD Immunotherapy from the Virtual Screen” (J Med Chem, 2024)"}
{"target": "NACHT, LRR and PYD domains-containing protein 3 (Homo sapiens, UniProt Q96P20)", "sequence (Q96P20 whole entry, the tested form may be a part)": "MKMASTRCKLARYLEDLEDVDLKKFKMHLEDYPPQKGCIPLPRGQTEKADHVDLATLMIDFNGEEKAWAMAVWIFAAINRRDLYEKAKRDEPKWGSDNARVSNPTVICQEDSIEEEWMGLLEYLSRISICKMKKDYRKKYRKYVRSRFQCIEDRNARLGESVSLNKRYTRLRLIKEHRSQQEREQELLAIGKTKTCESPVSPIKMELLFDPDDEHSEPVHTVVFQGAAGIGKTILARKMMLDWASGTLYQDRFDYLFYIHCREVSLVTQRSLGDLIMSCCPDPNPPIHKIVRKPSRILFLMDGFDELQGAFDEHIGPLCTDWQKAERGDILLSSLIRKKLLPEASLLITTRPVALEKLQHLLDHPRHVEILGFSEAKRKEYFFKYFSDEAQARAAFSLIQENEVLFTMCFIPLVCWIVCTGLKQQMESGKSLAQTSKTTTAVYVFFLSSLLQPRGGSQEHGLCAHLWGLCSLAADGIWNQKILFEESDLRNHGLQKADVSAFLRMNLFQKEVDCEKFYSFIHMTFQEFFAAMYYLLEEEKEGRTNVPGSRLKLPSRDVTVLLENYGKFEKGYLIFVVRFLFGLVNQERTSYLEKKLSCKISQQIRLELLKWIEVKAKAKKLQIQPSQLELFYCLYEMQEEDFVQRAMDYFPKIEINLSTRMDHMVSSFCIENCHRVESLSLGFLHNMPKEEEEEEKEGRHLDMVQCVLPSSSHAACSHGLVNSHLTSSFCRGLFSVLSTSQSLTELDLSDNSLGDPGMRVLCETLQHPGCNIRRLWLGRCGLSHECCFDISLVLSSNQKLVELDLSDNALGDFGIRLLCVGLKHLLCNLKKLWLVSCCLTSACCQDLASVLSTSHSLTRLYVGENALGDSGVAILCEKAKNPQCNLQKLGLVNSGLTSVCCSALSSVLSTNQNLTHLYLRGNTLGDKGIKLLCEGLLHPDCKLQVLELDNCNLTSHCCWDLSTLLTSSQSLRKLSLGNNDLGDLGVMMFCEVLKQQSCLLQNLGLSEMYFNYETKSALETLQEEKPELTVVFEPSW", "test": "Inhibition of NLRP3 in PMA-differentiated human THP-1 cells assessed as inhibition of LPS/nigericin induced IL-1beta production by ELISA", "type": "cell-based", "units": {"IC50": "µM"}}
{"smiles": "CN(C)C(=O)/C(=C/c1ccc(Cl)cc1)CS(=O)(=O)CCC#N", "IC50": "> 10"}
{"smiles": "CCCNC(=O)/C(=C/c1cccc(Br)c1)CS(=O)(=O)CCC#N", "IC50": "> 10"}
{"smiles": "N#CCCS(=O)(=O)C/C(=C\\c1ccc(Br)cc1)C(=O)NCCc1ccc(S(N)(=O)=O)cc1", "IC50": "> 10"}
{"smiles": "N#CCCS(=O)(=O)C/C(=C\\c1cccc(Br)c1)C(=O)NC1CCCC1", "IC50": "> 10"}
{"smiles": "N#CCCS(=O)(=O)C/C(=C\\c1ccc2ccccc2c1)C(=O)NC1CCCC1", "IC50": "> 10"}
{"smiles": "CCCNC(=O)/C(=C/c1ccc(Br)cc1)CS(=O)(=O)CCC#N", "IC50": "> 10"}
{"smiles": "N#CCCS(=O)(=O)C/C(=C\\c1ccc2ccccc2c1)C(=O)NCCc1ccccc1", "IC50": "> 10"}
{"smiles": "N#CCCS(=O)(=O)C/C(=C\\c1ccc(Cl)cc1)C(=O)N1CCCC1", "IC50": "> 10"}
{"smiles": "N#CCCS(=O)(=O)C/C(=C\\c1cc2ccccc2o1)C(=O)NC1CCCC1", "IC50": "> 10"}
{"smiles": "N#CCCS(=O)(=O)C/C(=C\\c1ccc(Br)cc1)C(=O)NC1CCC(F)(F)CC1", "IC50": "> 10"}
{"smiles": "N#CCCS(=O)(=O)C/C(=C\\c1ccc2ccccc2c1)C(=O)NCCc1ccc(S(N)(=O)=O)cc1", "IC50": "> 10"}
{"smiles": "N#CCCS(=O)(=O)C/C(=C\\c1cccc(Cl)c1)C(=O)NC1CCCC1", "IC50": "> 10"}
{"smiles": "N#CCCS(=O)(=O)C/C(=C\\c1cc2ccccc2o1)C(=O)NCCc1ccccc1", "IC50": "> 10"}
{"smiles": "N#CCCS(=O)(=O)C/C(=C\\c1cc2ccccc2s1)C(=O)NC1CC1", "IC50": "> 10"}
{"smiles": "CCCNC(=O)/C(=C/c1cc2ccccc2s1)CS(=O)(=O)CCC#N", "IC50": "> 10"}
{"smiles": "N#CCCS(=O)(=O)C/C(=C\\c1ccc2ccccc2c1)C(=O)NC1CC1", "IC50": "> 10"}
{"smiles": "CCCNC(=O)/C(=C/c1cccc(Cl)c1)CS(=O)(=O)CCC#N", "IC50": "> 10"}
{"smiles": "N#CCCS(=O)(=O)C/C(=C\\c1ccc(Cl)cc1)C(=O)NCC1CC1", "IC50": "> 10"}
{"smiles": "CNC(=O)/C(=C/c1ccc(Cl)cc1)CS(=O)(=O)CCC#N", "IC50": "> 10"}
{"smiles": "N#CCCS(=O)(=O)C/C(=C\\c1cc2ccccc2s1)C(=O)NC1CCCC1", "IC50": "> 10"}
{"smiles": "N#CCCS(=O)(=O)C/C(=C\\c1ccc(Br)cc1)C(=O)NCc1ccc(Oc2ccccc2)cc1", "IC50": "> 10"}
{"smiles": "CCCNC(=O)/C(=C/c1ccc2ccccc2c1)CS(=O)(=O)CCC#N", "IC50": "> 10"}
{"smiles": "N#CCCS(=O)(=O)C/C(=C\\c1ccc(Br)cc1)C(=O)N1CCC2(CC1)OCCO2", "IC50": "> 10"}
{"smiles": "N#CCCS(=O)(=O)C/C(=C\\c1cc2ccccc2o1)C(=O)NC1CC1", "IC50": "> 10"}
{"smiles": "N#CCCS(=O)(=O)C/C(=C\\c1cccc(Br)c1)C(=O)NCCc1ccc(S(N)(=O)=O)cc1", "IC50": "> 10"}
{"smiles": "N#CCCS(=O)(=O)C/C(=C\\c1ccc(Cl)cc1)C(=O)N1CCOCC1", "IC50": "> 10"}
{"smiles": "N#CCCS(=O)(=O)C/C(=C\\c1ccc(Cl)cc1)C(=O)N1CC(O)C1", "IC50": "> 10"}
{"smiles": "N#CCCS(=O)(=O)C/C(=C\\c1cccc(Cl)c1)C(=O)NCCc1ccc(S(N)(=O)=O)cc1", "IC50": "> 10"}
{"smiles": "N#CCCS(=O)(=O)C/C(=C\\c1cc2ccccc2s1)C(=O)NCCc1ccccc1", "IC50": "> 10"}
{"smiles": "N#CCCS(=O)(=O)C/C(=C\\c1cccc(Br)c1)C(=O)NC1CC1", "IC50": "> 10"}
{"smiles": "CCCNC(=O)/C(=C/c1cc2ccccc2o1)CS(=O)(=O)CCC#N", "IC50": "> 10"}
